Paper PMC11433764, “A Novel Compound from the Phenylsulfonylpiperazine Class: Evaluation of In Vitro Activity on Luminal Breast Cancer Cells” (Molecules, 2024)

Tests used:
[1] = system: ENTPD2; test: qPCR, ENTPD2 expression in MCF7; assay type: cell-based; settings: vs untreated cells
Procedure: (§1) Total RNA was extracted using Trizol reagent (Invitrogen), according to the manufacturer’s protocol. The quality of extracted RNA was verified by the spectrophotometric readings at 260 and 280 nm (Nanodrop 1000-ThermoFisher), and the first strand of cDNA was synthesized from 1 µg of total RNA via reverse transcription using GoScript™ Reverse Transcription Mix (Promega, Madison, WI, EUA). qPCR analysis was performed using 5.0 μL of Power SYBR Green PCR Master Mix (Applied Biosystems, Carlsbad, CA, USA) and run on a StepOnePlus Systems (Applied Biosystems, Carlsbad, CA, USA) device with the following cycling parameters: 40 cycles of 95 °C for 10 s and 60 °C for 30 s. The comparative Cq was used to find the relative expression of CDH1 (E-caderina), ENTPD1 (ectonucleoside triphosphate diphosphohydrolase 1), ENTPD2 (ectonucleoside triphosphate diphosphohydrolase 2), ENTPD3 (ectonucleoside triphosphate diphosphohydrolase 3), ENTPD5 ([…]) and KRT10 (keratin 10) genes, after relative standard curve optimization. β-2-microglobulin (β2M) was used as a reference gene. The primer sequences are described in Table 3.

[2] = system: KRT10; test: qPCR, KRT10 expression in MCF7; assay type: cell-based; settings: vs untreated cells
Procedure: as §1

Structure (SMILES): O=C(c1ccc(-n2cnnn2)cc1)N1CCN(S(=O)(=O)c2ccc(Cl)cc2)CC1 [Compound 3, (4-(1H-tetrazol-1-yl)phenyl)(4-((4-chlorophenyl)sulfonyl)piperazin-1-yl)methanone]
- Fold Change ENTPD2 mRNA ([1]; MCF7, 1.125 µM): 1.374
- Fold Change ENTPD2 mRNA ([1]; MCF7, 2.25 µM): 1.417
- Fold Change ENTPD2 mRNA ([1]; MCF7, 4.5 µM): 1.109
- Fold Change KRT10 mRNA ([2]; MCF7, 1.125 µM): 1.309
- Fold Change KRT10 mRNA ([2]; MCF7, 2.25 µM): 1.913
- Fold Change KRT10 mRNA ([2]; MCF7, 4.5 µM): 1.383
